From patent US20080318880A1, “Neoadjuvant treatment of Breast Cancer” (The University of Manitoba, priority 2002, published 2008)
Values joined by “and” are separate entries in the source; they are usually repeats but may differ in a detail not shown here. Identical values can stand only once.

Tested on: inflammatory or T3 to T4 breast cancer
Experiment: Phase II clinical trial of neoadjuvant DPPE plus anthracycline/taxane chemotherapy
Assay type: in vivo, human
Description: In the neoadjuvant treatment of inflammatory or T3 to T4 breast cancer, the diphenyl compound preferably is used in an amount of about 3 to about 10 mg/kg of patient, administered intravenously over a period of about 30 to about 90 minutes prior to administration of the chemotherapeutic agents and continuing for the period of administration of the chemotherapy agent. In the specific Phase II clinical trial described herein, there was employed 6 mg/kg of DPPE in the form of its hydrochloride salt, administered intravenously as an aqueous solution thereof over 80 minutes, with the last twenty minutes being accompanied by infusion of the chemotherapeutic agents, followed by the intravenous administration of an aqueous solution at a dose of 2.5 mg/kg of DPPE for 180 minutes accompanied by the infusion of Taxol® or for 60 minutes accompanied by the infusion of Taxotere®. The chemotherapy agents which are employed herein preferably are used in a total amount of 75 to about 225 mg/M^2 of patient consistent with the identity of the chemotherapy agent. The chemotherapeutic agents may be administered in an amount of about 50 to about 60 mg/M^2 of patient for doxorubicin or epirubicin, about 175 to about 225 mg/M^2 of Taxol® and about 75 to about 100 mg/M^2 of Taxotere®. In the specific Phase II clinical trial described herein, there was employed 50 mg/M^2 of doxorubicin or epirubicin, and 175 mg/M^2 of Taxol® or 75 mg/M^2 of Taxotere®, administered over the last 20 minutes of infusion of the DPPE solution and over a further 180 minutes for Taxol® or 60 minutes for Taxotere®, accompanied by infusion of a 2.5 mg/kg of DPPE solution. As noted above, patients with inflammatory breast cancer or T3 to T4 breast cancer are subjected to a number of cycles of chemotherapy at predetermined intervals to reduce the size of the tumor to an operable size. The number of cycles for each patient is generally about 5 to about 8 cycles, with about 21 to about 28 days between each cycle. In the Phase II clinical trial, patients were subjected to 6 cycles at time intervals of 21 days. A Phase II clinical trial was carried out in which patients (N=8) with inflammatory (N=7) and T3 to T4 (N=1) breast cancer were treated with a combination of DPPE and epirubicin (EPI)/Taxol® (N=5), a combination of DPPE and doxorubicin (DOX)/Taxol® (N=2) and DPPE and a combination of DPPE and epirubicin/Taxotere® (N=1). DPPE was administered at a dose of […] over 80 minutes with a combination of epirubicin or doxorubicin at a dose of 50 mg/M^2 and Taxol® at a dose of 175 mg/M^2 or Taxotere® at a dose of 75 mg/M^2 over the last 20 minutes and during a further 180 minutes for Taxol® or 60 minutes for Taxotere®, at a dose of 2.5 mg/kg. The treatment was repeated at 21 day intervals for 6 cycles. The eight patients with inflammatory or T3 to T4 breast cancer had no previous chemo- or radiotherapy. When the chemotherapy cycles were complete, the cancerous tissue was removed and the patients observed. The results obtained are shown in Table I. In this Table, the abbreviation TTP stands for time to progression and the abbreviation OS stands for overall survival. […] This patient remains disease-free at 55+ months.

[1] = 8 patients pooled: 5 DPPE/EPI/TAXOL, 2 DPPE/DOX/TAXOL, 1 DPPE/EPI/TAXOTERE
[2] = number of patients of 8, first figure of cell, same regimens
[3] = number of patients of 8, second figure of cell, marked *, same regimens

CCN(CC)CCOc1ccc(Cc2ccccc2)cc1 [DPPE, N,N-diethyl-2-[4-(phenylmethyl)-phenoxy]ethanamine]
OS (overall survival), median [1]: 43+ mos. | TTP (time to progression), median [1]: 21 mos. | overall outcome of trial (DPPE along with doxorubicin/epirubicin and Taxol/Taxotere): effective neoadjuvant treatment which lead to long term survival post surgery | Response CR (number of patients of 8, first figure of cell (not marked as pathological criteria), DPPE 6 mg/M^2 over 80 min + epirubicin or doxorubicin 50 mg/M^2 + Taxol 175 mg/M^2 or Taxotere 75 mg/M^2, 6 cycles at 21 day intervals): 4 | Response NR [2]: 1 | Response PR [2]: 3 | Response CR, pathological criteria (number of patients of 8, second figure of cell, marked * (pathological criteria), same regimens): 2 | Response NR, pathological criteria [3]: 2 | Response PR, pathological criteria [3]: 4 | response of individual patient (third patient, only high-grade cells on cytology): clinical/pathological complete remission | disease-free time of individual patient (third patient, with complete remission): ≥ 55 months | high-grade tumor component post-surgery (two long-term survivors with mixed high-grade tumors pre-treatment): no high-grade component post-surgery | survival of individual long-term survivors (two patients with mixed high-grade tumors pre-treatment): ≥ 45 months and ≥ 53 months
